What is called EC50 is the concentration giving half of the maximal effect. For orientation: IC50 means the concentration that gives 50% inhibition. Lower therefore signals greater potency in that assay.

Data on twelve compounds can be found in publication doi:10.1101/2024.12.17.628051v1 (biorxiv, 2024).

In experiment [1] the target is T1, STRAD/MO25 dimer (His-STRAD C160 and MO25) (Homo sapiens, UniProt Q7RTN6).
T1 sequence (Q7RTN6 59-431): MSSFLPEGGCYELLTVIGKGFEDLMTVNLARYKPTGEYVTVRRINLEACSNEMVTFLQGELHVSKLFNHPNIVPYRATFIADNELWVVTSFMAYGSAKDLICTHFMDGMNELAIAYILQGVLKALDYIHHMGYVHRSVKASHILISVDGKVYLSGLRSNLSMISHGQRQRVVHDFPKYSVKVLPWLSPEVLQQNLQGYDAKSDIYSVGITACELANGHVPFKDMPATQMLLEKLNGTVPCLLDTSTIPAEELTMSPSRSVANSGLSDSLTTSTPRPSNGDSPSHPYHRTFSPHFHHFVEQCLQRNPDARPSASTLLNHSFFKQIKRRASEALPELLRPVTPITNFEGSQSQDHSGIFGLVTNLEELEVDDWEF
T1 sequence (Q9Y376 1-341 partner): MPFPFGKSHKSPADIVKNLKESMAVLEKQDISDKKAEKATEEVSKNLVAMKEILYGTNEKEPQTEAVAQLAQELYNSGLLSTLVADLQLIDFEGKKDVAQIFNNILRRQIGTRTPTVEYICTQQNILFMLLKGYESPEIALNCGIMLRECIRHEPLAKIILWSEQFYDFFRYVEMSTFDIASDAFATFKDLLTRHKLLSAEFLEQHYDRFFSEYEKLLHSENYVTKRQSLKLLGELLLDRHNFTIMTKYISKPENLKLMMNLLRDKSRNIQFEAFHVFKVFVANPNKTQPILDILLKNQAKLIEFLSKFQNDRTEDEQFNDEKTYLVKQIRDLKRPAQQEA
The experiment is described as follows: TNP-ATP fluorescence displacement. It is filed as binding. Particulars: 50 μM compound, 5 μM STRAD-MO25, 5 μM TNP-ATP, pH 7.5, room temperature.

Experiment [2] concerns the target T1, STRAD/MO25 dimer (His-STRAD C160 and MO25). Kind of experiment: biochemical. As to conditions: read-out: residual occupancy (Average).
The target in experiment [3] is T2, LKB1/STRAD/MO25 trimer (Homo sapiens, UniProt Q7RTN6).
T2 sequence (Q7RTN6 1-431): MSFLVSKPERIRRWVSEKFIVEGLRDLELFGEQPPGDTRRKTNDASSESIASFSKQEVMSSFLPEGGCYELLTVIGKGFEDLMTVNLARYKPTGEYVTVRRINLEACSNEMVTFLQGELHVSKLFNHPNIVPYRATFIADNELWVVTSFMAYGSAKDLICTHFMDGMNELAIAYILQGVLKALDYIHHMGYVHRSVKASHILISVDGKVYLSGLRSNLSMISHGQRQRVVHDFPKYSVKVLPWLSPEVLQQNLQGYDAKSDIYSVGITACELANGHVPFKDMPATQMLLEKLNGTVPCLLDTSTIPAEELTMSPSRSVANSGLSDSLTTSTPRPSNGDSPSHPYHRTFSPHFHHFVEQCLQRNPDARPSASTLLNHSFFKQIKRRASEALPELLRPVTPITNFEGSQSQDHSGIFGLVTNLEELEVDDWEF
T2 sequence (Q15831 1-430 partner): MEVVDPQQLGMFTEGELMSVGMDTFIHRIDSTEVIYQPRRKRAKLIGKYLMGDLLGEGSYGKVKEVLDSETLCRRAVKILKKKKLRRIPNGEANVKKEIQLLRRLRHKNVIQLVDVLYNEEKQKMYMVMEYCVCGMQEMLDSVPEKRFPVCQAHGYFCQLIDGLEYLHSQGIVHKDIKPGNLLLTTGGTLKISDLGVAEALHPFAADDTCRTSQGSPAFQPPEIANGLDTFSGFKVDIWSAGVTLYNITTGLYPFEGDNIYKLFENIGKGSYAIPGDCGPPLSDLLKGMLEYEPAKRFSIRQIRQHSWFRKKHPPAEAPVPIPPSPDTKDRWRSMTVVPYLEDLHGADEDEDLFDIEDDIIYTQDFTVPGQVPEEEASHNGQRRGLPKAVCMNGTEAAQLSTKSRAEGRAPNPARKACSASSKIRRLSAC
T2 sequence (Q9Y376 1-341 partner): T1 sequence (Q9Y376 1-341 partner)
The experiment is described as follows: Caliper mobility-shift kinase assay, Fam-LKBtide. It is filed as biochemical.

Experiment [4] addresses T1, STRAD/MO25 dimer (His-STRAD C160 and MO25). Kind of experiment: TNP-ATP fluorescence displacement. The experiment is classed as binding.
For experiment [5] the target is unchanged. Kind of experiment: biochemical. As to conditions: read-out: residual occupancy (Average). This is another data set of the same source.

Where two headings read alike, the source gives them in different places.

Consider `COc1cc(N2CCC(N)CC2)ccc1Nc1ncc(Cl)c(-c2c[nH]c3ccccc23)n1` [AZD3463], for which, in experiment [1], the “Residual Occupancy (Average) at 50 μM” value was 0.33 ± 0.02 fraction.

Turning to `Cc1[nH]c2ccccc2c1C1=C(NCCc2ccc(F)cc2)C(=O)N(C)C1=O` [IM-12], the remaining activity at 50 µM in experiment [2] came to 58%. On the same count and under the same terms, the result for `Cc1c[nH]c2nc(Nc3ccc(N4CCN(C)CC4)c(F)c3)nc(-c3cccc(CC#N)c3)c12` [SGI-7079] reads 56%. On to `CCOP(C)(=O)COc1cccc(-c2cn([C@H]3C[C@@H](CN4CCC4)C3)c3ncnc(N)c23)c1` (stereo partly shown) [SMALS-357], for which the EC50 in experiment [3] amounted to 5200 nM. The compound `Nc1ncnc2c1c(-c1cccc(OCc3ccccc3)c1)cn2[C@H]1C[C@@H](CN2CCC2)C1` [NVP-AEW541] came in with an IC50 in experiment [4] of 2400 nM. Moreover, the remaining activity at 50 µM in experiment [2] stood at 19%. Take `N#C/C(=C(/N)Sc1ccc(N)cc1)c1ccccc1C(F)(F)F` [SL-327]: in experiment [2], the remaining activity at 50 µM stood at 54%. As for `Cc1cc(Nc2ncc(Cl)c(Nc3ccccc3S(=O)(=O)C(C)C)n2)c(OC(C)C)cc1C1CCNCC1` [LDK378], in experiment [1], the “Residual Occupancy (Average) at 50 μM” value came to 0.40 ± 0.03 fraction. Regarding `CN1CCN(CCOc2cc(OC3CCOCC3)c3c(Nc4c(Cl)ccc5c4OCO5)ncnc3c2)CC1` [Saracatinib], the “Residual Occupancy (Average) at 50 μM” value in experiment [1] came to 0.36 ± 0.02 fraction. As for `N#CC(C#N)=Cc1ccc(O)c(O)c1` [AG-18], the remaining activity at 50 µM in experiment [5] is 54%. In the case of `CCOP(=O)(COc1cccc(-c2cn([C@H]3C[C@@H](CN4CCC4)C3)c3ncnc(N)c23)c1)OCC` [SMALS-323], the EC50 in experiment [3] worked out at 480 nM. Take `CCOc1cc(C(=O)N2CCC(N3CCN(C)CC3)CC2)ccc1Nc1ncc2c(n1)N(C1CCCC1)c1ccccc1C(=O)N2C` [ERK5-IN-1]: in experiment [1], the “Residual Occupancy (Average) at 50 μM” value is recorded as 0.46 ± 0.02 fraction. Consider `COc1cc(Nc2ncc(F)c(Nc3ccc4c(n3)N(COP(=O)(O)O)C(=O)C(C)(C)O4)n2)cc(OC)c1OC` [Fostamatinib (R788)], for which the remaining activity at 50 µM in experiment [2] was determined as 52%.
